Columns and labels:
AZD1390 = compound: CC(C)n1c(=O)n(C)c2cnc3cc(F)c(-c4ccc(OCCCN5CCCCC5)nc4)cc3c21 [AZD1390]; conditions: max 0.3 µM
Outline: (§1)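 Cancer cell lines were seeded into 1536-well plates in 7.5 μl medium (DMEM/F12 or RPMI, 10% FBS), held 24 hours at 37°C and 5% CO2, and dosed for 72 hours with final DMSO typically 0.2%. Luminescence from CellTiter-Glo 2.0, scaled between blank-well and DMSO-well means, served as viability. The single-agent IC50 was obtained from dose-response fits with a non-linear mixed effects model, each fit being a two-parameter logistic curve.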

Gefitinib = compound: COc1cc2ncnc(Nc3ccc(F)c(Cl)c3)c2cc1OCCCN1CCOCC1 [Gefitinib]; conditions: max 10 µM
Outline: as §1

Trametinib = compound: CC(=O)Nc1cccc(-n2c(=O)n(C3CC3)c(=O)c3c(Nc4ccc(I)cc4F)n(C)c(=O)c(C)c32)c1 [Trametinib]; conditions: max 1 µM
Outline: as §1

Alisertib = compound: COc1cc(Nc2ncc3c(n2)-c2ccc(Cl)cc2C(c2c(F)cccc2OC)=NC3)ccc1C(=O)O [Alisertib]; conditions: max 10 µM
Outline: as §1

AZD8186 = compound: C[C@@H](Nc1cc(F)cc(F)c1)c1cc(C(=O)N(C)C)cc2c(=O)cc(N3CCOCC3)oc12 [AZD8186]; conditions: max 3 µM
Outline: as §1

Selumetinib = compound: Cn1cnc2c(F)c(Nc3ccc(Br)cc3Cl)c(C(=O)NOCCO)cc21 [Selumetinib]; conditions: max 10 µM
Outline: as §1

AZD7648 = compound: Cc1cc2ncnn2cc1Nc1ncc2c(n1)n(C1CCOCC1)c(=O)n2C [AZD7648]; conditions: max 10 µM
Outline: as §1

AZD4320 = compound: CN(CC[C@H](CSC1=CC=CC=C1)NC2=C(C=C(C=C2)S(=O)(=O)NC(=O)C3=CC=C(C=C3)N4CCC(CC4)[C@H](C5=CC=CC=C5C6=CC=C(C=C6)Cl)O)S(=O)(=O)C(F)(F)F)CCO [AZD4320]; conditions: max 1 µM
Outline: as §1

AZD5991 = compound: Cc1c2c(nn1C)CSCc1cc(n(C)n1)CSc1cc(c3ccccc3c1)OCCCc1c(C(=O)O)n(C)c3c-2c(Cl)ccc13 [AZD5991]; conditions: max 1 µM
Outline: as §1

SN-38 = compound: CCc1c2c(nc3ccc(O)cc13)-c1cc3c(c(=O)n1C2)COC(=O)[C@]3(O)CC [SN-38]; conditions: max 0.3 µM
Outline: as §1

SG3199 = compound: CC1=CN2[C@@H](C1)C=NC3=CC(=C(C=C3C2=O)OC)OCCCCCOC4=C(C=C5C(=C4)N=C[C@@H]6CC(=CN6C5=O)C)OC [SG3199]; conditions: max 0.001 µM
Outline: as §1

Venetoclax = compound: CC1(C)CCC(CN2CCN(c3ccc(C(=O)NS(=O)(=O)c4ccc(NCC5CCOCC5)c([N+](=O)[O-])c4)c(Oc4cnc5[nH]ccc5c4)c3)CC2)=C(c2ccc(Cl)cc2)C1 [Venetoclax]; conditions: max 1 µM
Outline: as §1

Lapatinib = compound: CS(=O)(=O)CCNCc1ccc(-c2ccc3ncnc(Nc4ccc(OCc5cccc(F)c5)c(Cl)c4)c3c2)o1 [Lapatinib]; conditions: max 10 µM
Outline: as §1

Doxorubicin = compound: COc1cccc2c1C(=O)c1c(O)c3c(c(O)c1C2=O)C[C@@](O)(C(=O)CO)C[C@@H]3O[C@H]1C[C@H](N)[C@H](O)[C@H](C)O1 [Doxorubicin]; conditions: max 1 µM
Outline: as §1

Palbociclib = compound: CC(=O)c1c(C)c2cnc(Nc3ccc(N4CCNCC4)cn3)nc2n(C2CCCC2)c1=O [Palbociclib]; conditions: max 10 µM
Outline: as §1

Capivasertib = compound: C1CN(CCC1(C(=O)N[C@@H](CCO)C2=CC=C(C=C2)Cl)N)C3=NC=NC4=C3C=CN4 [Capivasertib]; conditions: max 10 µM
Outline: as §1

Olaparib = compound: O=C(c1cc(Cc2n[nH]c(=O)c3ccccc23)ccc1F)N1CCN(C(=O)C2CC2)CC1 [Olaparib]; conditions: max 10 µM
Outline: as §1

AZD5153 = compound: COc1nnc2ccc(N3CCC(c4ccc(OCCN5CCN(C)C(=O)[C@H]5C)cc4)CC3)nn12 [AZD5153]; conditions: max 1 µM
Outline: as §1

Prexasertib = compound: COc1cccc(OCCCN)c1-c1cc(Nc2cnc(C#N)cn2)n[nH]1 [Prexasertib]; conditions: max 1 µM
Outline: as §1

Dasatinib = compound: CC1=C(C(=CC=C1)Cl)NC(=O)C2=CN=C(S2)NC3=CC(=NC(=N3)C)N4CCN(CC4)CCO [Dasatinib]; conditions: max 2 µM
Outline: as §1

Savolitinib = compound: C[C@@H](c1ccc2nccn2c1)n1nnc2ncc(-c3cnn(C)c3)nc21 [Savolitinib]; conditions: max 1 µM
Outline: as §1

AZD6738 = compound: C[C@@H]1COCCN1C2=NC(=NC(=C2)C3(CC3)[S@](=N)(=O)C)C4=C5C=CNC5=NC=C4 [AZD6738]; conditions: max 10 µM
Outline: as §1

Taselisib = compound: Cc1nc(-c2cn3c(n2)-c2ccc(-c4cnn(C(C)(C)C(N)=O)c4)cc2OCC3)n(C(C)C)n1 [Taselisib]; conditions: max 10 µM
Outline: as §1

AZD2811 = compound: CCN(CCO)CCCOc1ccc2c(Nc3cc(CC(=O)Nc4cccc(F)c4)[nH]n3)ncnc2c1 [AZD2811]; conditions: max 1 µM
Outline: as §1

AZD1775 = compound: C=CCn1c(=O)c2cnc(Nc3ccc(N4CCN(C)CC4)cc3)nc2n1-c1cccc(C(C)(C)O)n1 [AZD1775]; conditions: max 3 µM
Outline: as §1

Crizotinib = compound: C[C@@H](Oc1cc(-c2cnn(C3CCNCC3)c2)cnc1N)c1c(Cl)ccc(F)c1Cl [Crizotinib]; conditions: max 10 µM
Outline: as §1

AZD0156 = compound: CN(C)CCCOc1ccc(-c2ccc3ncc4c(c3c2)n(C2CCOCC2)c(=O)n4C)cn1 [AZD0156]; conditions: max 3 µM
Outline: as §1

MK-2206 = compound: NC1(c2ccc(-c3nc4ccn5c(=O)[nH]nc5c4cc3-c3ccccc3)cc2)CCC1 [MK-2206]; conditions: max 10 µM
Outline: as §1

Row | Cell Line | IC50, cell viability 72 h (AZD1390) [µM] | IC50, cell viability 72 h (Gefitinib) [µM] | IC50, cell viability 72 h (Trametinib) [µM] | IC50, cell viability 72 h (Alisertib) [µM] | IC50, cell viability 72 h (AZD8186) [µM] | IC50, cell viability 72 h (Selumetinib) [µM] | IC50, cell viability 72 h (AZD7648) [µM] | IC50, cell viability 72 h (AZD4320) [µM] | IC50, cell viability 72 h (AZD5991) [µM] | IC50, cell viability 72 h (SN-38) [µM] | IC50, cell viability 72 h (SG3199) [µM] | IC50, cell viability 72 h (Venetoclax) [µM] | IC50, cell viability 72 h (Lapatinib) [µM] | IC50, cell viability 72 h (Doxorubicin) [µM] | IC50, cell viability 72 h (Palbociclib) [µM] | IC50, cell viability 72 h (Capivasertib) [µM] | IC50, cell viability 72 h (Olaparib) [µM] | IC50, cell viability 72 h (AZD5153) [µM] | IC50, cell viability 72 h (Prexasertib) [µM] | IC50, cell viability 72 h (Dasatinib) [µM] | IC50, cell viability 72 h (Savolitinib) [µM] | IC50, cell viability 72 h (AZD6738) [µM] | IC50, cell viability 72 h (Taselisib) [µM] | IC50, cell viability 72 h (AZD2811) [µM] | IC50, cell viability 72 h (AZD1775) [µM] | IC50, cell viability 72 h (Crizotinib) [µM] | IC50, cell viability 72 h (AZD0156) [µM] | IC50, cell viability 72 h (MK-2206) [µM]
1 | FADU (Head and Neck Carcinoma) | > 0.3 | 9.02 | > 1 | > 10 | > 3 | > 10 | > 10 | > 1 | 0.407 | 0.0063 | > 0.001 | > 1 | 3.16 | 0.312 | > 10 | > 10 | > 10 | > 1 | 0.0791 | > 2 | > 1 | > 10 | 3.32 | > 1 | > 3 | > 10 | > 3 | 
2 | LB996-RCC (Kidney Carcinoma) | > 0.3 | > 10 | > 1 | 4.59 | > 3 | > 10 | > 10 | > 1 | > 1 | 0.00864 | > 0.001 | > 1 | > 10 | 0.625 | > 10 | 5.32 | > 10 | > 1 | 0.167 | 0.188 | > 1 | 9.94 | 1.74 | > 1 | 0.403 | > 10 | > 3 | 
3 | GP5d (Colorectal Carcinoma) | > 0.3 | > 10 | 0.0174 | 5.02 | > 3 | 0.34 | > 10 | > 1 | 0.329 | 0.073 | > 0.001 | > 1 | > 10 | 0.552 | > 10 | 1.5 | > 10 | 0.168 | 0.0233 | > 2 | > 1 | 3.64 | 0.254 | 0.764 | 0.542 | 6.99 | > 3 | 
4 | HEC-1 (Endometrial Carcinoma) | > 0.3 | > 10 | > 1 | > 10 | > 3 | > 10 | > 10 | > 1 | > 1 | > 0.3 | > 0.001 | > 1 | > 10 | > 1 | > 10 | > 10 | > 10 | 0.881 | 0.493 | > 2 | > 1 | > 10 | > 10 | > 1 | 1.81 | > 10 | > 3 | 
5 | A2058 (Melanoma) | > 0.3 | > 10 | 0.236 | 1.22 | > 3 | > 10 | > 10 | > 1 | > 1 | > 0.3 | > 0.001 | > 1 | 8.41 | > 1 | > 10 | > 10 | > 10 | 0.656 | > 1 | > 2 | > 1 | > 10 | 6.33 | > 1 | 1.23 | 8.25 | > 3 | > 10
6 | RERF-LC-Sq1 (Squamous Cell Lung Carcinoma) | > 0.3 | 3.12 | 0.179 | > 10 | > 3 | > 10 | > 10 | > 1 | > 1 | 0.167 | > 0.001 | > 1 | 2.64 | 1 | 6.6 | 1.6 | > 10 | 0.768 | 0.0366 | > 2 | > 1 | 4.11 | 0.427 | > 1 | 0.681 | > 10 | > 3 | 
7 | LXF-289 (Lung Adenocarcinoma) | > 0.3 | > 10 | > 1 | 3.39 | > 3 | > 10 | > 10 | > 1 | > 1 | > 0.3 | > 0.001 | > 1 | 4.86 | > 1 | > 10 | > 10 | > 10 | 0.377 | 0.24 | 0.171 | > 1 | > 10 | > 10 | > 1 | 0.814 | 4.53 | > 3 | 
8 | SU-DHL-10 (B-Cell Non-Hodgkin's Lymphoma) | > 0.3 | 7.02 | > 1 | 0.684 | 1.08 | > 10 | > 10 | > 1 | 0.0255 | 0.013 | > 0.001 | > 1 | 4.97 | 0.442 | 0.435 | 0.505 | > 10 | 0.0095 | 0.0272 | 0.0628 | > 1 | 2.62 | 1.34 | 0.0292 | 0.586 | 2.48 | > 3 | 
